In PMC4067310, “From Pan-Reactive KV7 Channel Opener to Subtype Selective Opener/Inhibitor by Addition of a Methyl Group” (PLoS ONE, 2014):
Like-named read-outs stand apart in the source and are kept apart here.

Tests used:
KV7.2-L275V = target: T1, KV7.2-L275V (Homo sapiens, UniProt O43526, L275V); assay: Two-electrode voltage-clamp of mutant KV7.2-L275V in Xenopus laevis oocytes; type: cell-based; settings: 10 µM SMB-1, +50 mV, n = 4; read-out: current amplitude, % of control
T1 construct: expressed in transfected cells; host or cells: Xenopus laevis oocytes injected with cRNA (pGEM-HE vector)
T1 sequence (O43526 whole entry L275V): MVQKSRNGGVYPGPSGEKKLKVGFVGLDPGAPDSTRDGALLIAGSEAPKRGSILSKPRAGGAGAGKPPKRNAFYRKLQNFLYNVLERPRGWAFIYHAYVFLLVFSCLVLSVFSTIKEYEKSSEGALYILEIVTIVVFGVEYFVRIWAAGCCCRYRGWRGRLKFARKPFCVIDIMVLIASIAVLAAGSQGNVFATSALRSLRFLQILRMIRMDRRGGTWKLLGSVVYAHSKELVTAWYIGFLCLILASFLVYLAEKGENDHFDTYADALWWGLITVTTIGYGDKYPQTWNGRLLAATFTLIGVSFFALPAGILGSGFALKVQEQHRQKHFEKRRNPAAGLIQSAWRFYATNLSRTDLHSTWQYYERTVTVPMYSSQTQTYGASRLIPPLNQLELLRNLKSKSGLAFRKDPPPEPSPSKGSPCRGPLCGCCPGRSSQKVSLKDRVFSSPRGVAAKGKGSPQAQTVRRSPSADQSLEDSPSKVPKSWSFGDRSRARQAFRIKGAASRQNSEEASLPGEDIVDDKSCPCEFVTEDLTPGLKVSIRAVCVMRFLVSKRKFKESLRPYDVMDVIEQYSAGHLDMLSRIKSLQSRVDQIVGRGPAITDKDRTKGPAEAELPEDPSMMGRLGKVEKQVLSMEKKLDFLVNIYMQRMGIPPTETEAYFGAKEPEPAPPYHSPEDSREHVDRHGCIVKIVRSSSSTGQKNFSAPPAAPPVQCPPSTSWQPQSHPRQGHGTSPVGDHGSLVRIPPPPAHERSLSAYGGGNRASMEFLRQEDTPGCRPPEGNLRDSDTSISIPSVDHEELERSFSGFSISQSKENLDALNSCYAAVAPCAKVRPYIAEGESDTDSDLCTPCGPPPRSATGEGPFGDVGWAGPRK
Experimental: Point mutations were introduced using mutated oligonucleotide extension (PfuTurbo Polymerase, Stratagene, La Jolla, CA, USA) from a plasmid template harboring the cDNA of interest, digested with DpnI (Fermentas, St. Leon-Roth, Germany) and transformed into E.coli XL1 Blue cells. The construct was verified by complete DNA sequencing of the cDNA insert. cRNA was prepared from linearized human wild-type (WT) and mutant KV7 channels in the pGEM-HE vector using the T7 m-Message Machine kit (Ambion, Austin, TX, USA) according to the manufacturer's instructions.
Extraction of Xenopus laevis oocytes and injection of cRNA was performed as described previously. Oocytes were kept in Modified Barth's Saline (in mM: 88 NaCl, 1 KCl, 2.4 NaHCO3, 0.41 CaCl2, 0.82 MgSO4, 0.3 Ca(NO3)2, 15 HEPES, pH 7.4 supplemented with 100 U/mL penicillin and 100 µg/mL streptomycin) at 18°C, and currents were recorded after 2-7 days. […]
KV7 currents in Xenopus laevis oocytes were recorded using two-electrode voltage-clamp at room temperature in Ringer buffer (in mM: 115 NaCl, 2.5 KCl, 1.8 CaCl2, 0.1 MgCl2, 10 HEPES, pH 7.4) as described previously. Data was acquired using pCLAMP 10.2 software (Molecular Devices, CA, USA) and analyzed using pCLAMP 10.2 and GraphPad Prism 4.0 (GraphPad Software Inc., CA, USA). […]

[1] = Brain and plasma exposure in rats after subcutaneous administration; type: in vivo; settings: male, Sprague-Dawley, sc, rat, 20 mg/kg s.c.; for concentration at 30 min / concentration at 120 min: n = 3, mean ± S.E.M
Experimental: Brain and plasma exposure of SMB-1 was evaluated in male Sprague-Dawley rats (225–250 g, Charles River Lab., UK). SMB-1 was administered subcutaneously in solution at a dose of 20 mg/kg in 25% solutol (dose volume 5 ml/kg) and exposure was assessed after 30 and 120 min (n = 3). Under isoflurane anesthesia, cardiac blood was obtained in EDTA-coated tubes and centrifuged for 10 min at 4°C, after which plasma was harvested. While still under anesthesia, the animal was decapitated, the brain was removed and brain homogenate was prepared by homogenizing the whole brain with 70% acetonitrile (1∶4 v/v) followed by centrifugation and collection of the supernatant. Concentrations of SMB-1 were determined using turboflow chromatography (dual column, focus mode; Thermo Fisher Scientific, Waltham, MA) followed by tandem mass spectrometry detection (Sciex API-3000 MS; Applied Biosystems, Foster City, CA). The limit of detection was 1 ng/ml in plasma and 5 ng/g in brain.

[2] = Free fraction by equilibrium dialysis, rat brain homogenate; type: in vitro ADME; settings: equilibrium dialysis 37°C 5 h, mean ± S.E.M., n = 3
Experimental: The bidirectional permeability (Papp) of SMB-1 was examined in an MDCK cell system expressing human MDR1 [ABCB1, P-glycoprotein (P-gp)] as described previously. Permeation of the test compound from apical (A) to basal (B) direction or B to A direction was determined in triplicate over a 150-min incubation at 37°C. The efflux ratio was calculated as the ratio between Papp (B to A) and Papp (A to B). Free fraction of SMB-1 was determined using a standard equilibrium dialysis methodology with freshly isolated rat brain homogenate or plasma. Equilibrium dialysis was performed by incubating at 37°C for 5 h in triplicates.

[3] = brain, read-out: Brain total concentration
[4] = plasma, read-out: Plasma total concentration

remaining activity at 10 µM (KV7.2-L275V): 90.4 ± 4.1%
concentration at 30 min [1, 3]: 0.55 ± 0.04 µM
concentration at 120 min [1, 3]: 0.44 ± 0.07 µM
Kp at 2 h ([1]; brain/plasma, 30 and 120 min, read-out: brain/plasma partition coefficient): 0.04 to 0.07
concentration at 30 min [1, 4]: 14 ± 1.5 µM
concentration at 120 min [1, 4]: 6.4 ± 0.7 µM
fraction unbound at 5 h [2]: 0.001 ± 0.001
SMILES: C[C@@H](c1ccc2c(c1)N(CC1CC1)CCO2)N(C)C(=O)/C=C/c1ccccc1F [SMB-1, (E)-N-[(S)-1-(4-Cyclopropylmethyl-3,4-dihydro-2H-1,4-benzoxazin-6-yl)-ethyl]-3-(2-fluoro-phenyl)-N-methyl-acrylamide]
